Measured values from ChEMBL document CHEMBL1201862, “PubChem BioAssay data set” (2004).
The source made the active and inactive calls.

Assays:
[1] = target: Envelope glycoprotein gp160 (Human immunodeficiency virus 1, UniProt Q6QLK5); assay: inhibitors of HIV fusion peptide binding, primary screen, biochemical, uHTS, fluorescence dequenching (AID 1986)
[2] = system: Streptococcus sp. 'group A'; assay: growth inhibition of control SK(-) GAS strain, dose response, counter-screen for streptokinase expression inhibitor project, luminescence, kanamycin, BacTiterGlo, confirmation (AID 1900); format: functional, organism-based
[3] = HIV-1 Env-mediated cell fusion inhibitors, dose response, CCR5-tropic Env (AID 2279); format: functional
Streptococcus = assay: Group A Streptococcus viability loss, dose response, counter-screen for streptokinase expression inhibitor project, luminescence, BacTiterGlo (AID 1915); format: functional, organism-based;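 also: potency for reduction of bacterial viability or growth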
[4] = Concentration-dependent survival of SW480 colon cancer line, luminescence detection with CellTiter-Glo, half-maximal inhibitory concentration (AID 1117338); format: functional
[5] = RKO cell viability reduction, dose response, CellTiter-Glo luminescence (AID 1117322); format: functional
[6] = cytotoxicity toward HCT116 cells – cell-based, CellTiter-Glo luminescence, IC50, dose response (AID 1117332); format: functional; conditions: HCT-116
[7] = SNU-C1 cell viability reduction, dose response, CellTiter-Glo luminescence (AID 1117323); format: functional, cell-based
[8] = half-maximal inhibitory concentration for glucagon-like peptide-1 release, STC-1 cell line, dose-response (AID 1117345); format: functional, cell-based
[9] = cytotoxicity toward Colo320 cells – cell-based, CellTiter-Glo luminescence, IC50, dose response (AID 1117334); format: functional; conditions: COLO 320
[10] = cytotoxicity toward HT-29 cells – cell-based, CellTiter-Glo luminescence, IC50, dose response (AID 1117330); format: functional
[11] = CellTiter-Glo luminescent dose response of DLD-1 viability loss (AID 1117352); format: functional
[12] = Glucagon-like peptide 1 release potency, NCI-H716 cell line, dose-response, half-maximal inhibitory concentration (AID 1117344); format: functional, cell-based
[13] = target: Melanin-concentrating hormone receptor 1 (Homo sapiens, UniProt Q99705); assay: Late-stage fluorescence-based counterscreen for antagonists of the G-protein coupled receptor 7 (GPR7): cell-based dose response assay to identify antagonists of the melanin-concentrating hormone receptor 1 (MCHR1). [Related pubchem assays (depositor defined):AID1861, AID1880, AID1952, AID2148, AID2251, AID2257, AID485339]; format: functional;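 also: stimulated with 30 nM MCH peptide agonist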
Vero [14] = assay: cytotoxicity of synthesized analogs in Vero 76, SAR follow-up, cytotoxicity control for West Nile virus antiviral project, Vero 76 cells (AID 2414); format: functional; conditions: Chlorocebus sabaeus
Vero [15] = assay: cytotoxicity of synthesized analogs in Vero cells, SAR follow-up, cytotoxicity control for West Nile virus antiviral project, cell-based, set II (AID 2402); format: functional; conditions: Chlorocebus sabaeus
Vero [16] = assay: Vero E6 cell cytotoxicity, SAR follow-up, cytotoxicity control for West Nile virus antiviral project, synthesized analogs (AID 2244); format: functional; conditions: Chlorocebus sabaeus
[17] = A Cell Based Assay for the Identification of Probe candidate Compounds with Anti- Venezuelan Equine Encephalitis virus. [Related pubchem assays: 2409, 2419, 1621, 2238, 2405, 2024, 2065, 2402, 2414, 1635, 1650, 2244 ]; format: functional
Vero [18] = assay: West Nile virus CPE inhibition, SAR follow-up, cell-based, synthesized analogs (AID 2238); format: functional; conditions: Chlorocebus sabaeus
[19] = target: T1, Ubiquitin-conjugating enzyme E2 N (Homo sapiens, UniProt P61088); format: functional;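 also: Dose-response confirmation in a TR-FRET assay detecting UBC13-driven polyubiquitin chain formation, inhibition measured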
T1 sequence (P61088 whole entry): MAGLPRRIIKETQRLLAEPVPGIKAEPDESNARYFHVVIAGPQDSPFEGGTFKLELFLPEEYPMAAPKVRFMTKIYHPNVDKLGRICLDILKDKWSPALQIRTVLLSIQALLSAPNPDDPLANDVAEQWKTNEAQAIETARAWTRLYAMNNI

Streptokinase A = target: T2, Streptokinase A (Streptococcus pyogenes serotype M1, UniProt P10520); assay: S. pyogenes streptokinase expression inhibitors, potency, dose response, plasminogen activation absorbance, OD405 (AID 1914); format: functional, Streptococcus pyogenes M1 GAS;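 also: secreted streptokinase activity via plasminogen activation per viability signal from cell pellet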
T2 sequence (P10520 whole entry): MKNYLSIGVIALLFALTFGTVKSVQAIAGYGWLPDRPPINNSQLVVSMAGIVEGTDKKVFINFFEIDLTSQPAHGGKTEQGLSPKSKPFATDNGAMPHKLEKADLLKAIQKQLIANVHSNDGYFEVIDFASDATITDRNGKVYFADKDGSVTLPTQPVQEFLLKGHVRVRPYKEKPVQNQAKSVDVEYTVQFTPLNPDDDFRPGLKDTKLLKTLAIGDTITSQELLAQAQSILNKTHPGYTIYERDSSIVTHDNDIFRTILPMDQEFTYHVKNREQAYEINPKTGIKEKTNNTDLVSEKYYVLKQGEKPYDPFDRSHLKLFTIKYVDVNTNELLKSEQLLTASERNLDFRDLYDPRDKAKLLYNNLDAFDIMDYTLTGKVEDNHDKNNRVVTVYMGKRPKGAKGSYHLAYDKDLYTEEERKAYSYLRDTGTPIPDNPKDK

Salmon testes DNA = assay: DNA intercalators displacing acridine orange, dose response, artefact control for KSHV LANA DNA-binding inhibitor project, biochemical, fluorescence polarization, cherry-picked samples, set 2 (AID 504727); parameters: species or system Salmonidae
[20] = target: FAD-linked sulfhydryl oxidase ALR (Homo sapiens, UniProt P55789); assay: inhibitors of human ALR sulfhydryl oxidase, dose response, biochemical, H2O2 detection, luminescence, cherry-pick (AID 493248)
Cysteine protease ATG4B = target: T3, Cysteine protease ATG4B (Homo sapiens, UniProt Q9Y4P1); format: functional;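 also: Fluorescence-based dose-response confirmation assay measuring inhibition of ATG4B activity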
T3 sequence (Q9Y4P1 whole entry): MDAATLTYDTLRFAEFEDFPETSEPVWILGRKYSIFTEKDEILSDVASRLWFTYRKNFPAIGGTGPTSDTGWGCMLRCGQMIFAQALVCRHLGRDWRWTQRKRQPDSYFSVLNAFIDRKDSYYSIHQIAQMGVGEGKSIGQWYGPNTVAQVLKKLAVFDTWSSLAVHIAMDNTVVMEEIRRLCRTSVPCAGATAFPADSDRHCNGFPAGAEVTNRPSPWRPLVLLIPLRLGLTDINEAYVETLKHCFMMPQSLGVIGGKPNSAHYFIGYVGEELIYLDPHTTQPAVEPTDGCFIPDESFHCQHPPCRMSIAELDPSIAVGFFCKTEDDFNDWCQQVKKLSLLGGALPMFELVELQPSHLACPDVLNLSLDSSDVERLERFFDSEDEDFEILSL

[21] = target: T4, Endoribonuclease toxin MazF (Escherichia coli K-12, UniProt P0AE70); assay: MazF toxin RNase activators, dose response, biochemical, fluorescence, single-stranded RNA substrate, uHTS hits (AID 588481); format: functional
T4 sequence (P0AE70 whole entry): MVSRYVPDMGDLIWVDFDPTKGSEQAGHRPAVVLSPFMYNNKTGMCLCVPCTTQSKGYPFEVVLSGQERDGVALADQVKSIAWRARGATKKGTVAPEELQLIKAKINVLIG

Phospholipase A2 = Phospholipase A2 (Homo sapiens, UniProt P04054); format: functional;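 also: confirmatory dose-response counterscreen on phospholipase A2, testing hits that came from an ultra-high-throughput screen for ATG4B inhibitors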
[22] = target: T4, Endoribonuclease toxin MazF; assay: fluorescent RNA oligo signal without MazF, dose response, counter-screen for MazEF activator project, biochemical, fluorescence, single-stranded RNase substrate (AID 588502); format: functional
[23] = target: Eukaryotic translation initiation factor 4H (Homo sapiens, UniProt Q15056); assay: human eIF4H binding inhibitors, primary screen, translation initiation inhibitor project, biochemical, uHTS, fluorescence polarization (AID 2012)
[24] = target: Polyadenylate-binding protein 1 (Homo sapiens, UniProt P11940); assay: PABP poly(A) RNA binding inhibitors, primary screen, biochemical, fluorescence polarization, uHTS (AID 2014)
Protein Rev = Protein Rev (Human immunodeficiency virus type 1 group M subtype B (isolate HXB2)(HIV-1), UniProt P04618); assay: inhibitors of Rev binding to RRE RNA, dose response, biochemical, fluorescence polarization, HIV-1 (AID 434976); parameters: species or system Human immunodeficiency virus 1
[25] = target: Female germline-specific tumor suppressor gld-1 (Caenorhabditis elegans, UniProt Q17339); assay: inhibitors of GLD-1 binding to TGE RNA, dose response, biochemical, fluorescence polarization, C. elegans (AID 2802);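 also: fluorescence polarization of labeled TGE RNA bound by purified gld-1 protein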
Fibrinogen beta chain [26] = target: T5, Fibrinogen beta chain (Homo sapiens, UniProt P02675); assay: Fluorescence polarization-based biochemical high throughput dose response assay to identify inhibitors that disrupt the binding of a cyclic peptide (Tn6) to the fibrin proteolytic product D-Dimer and fragment E complex [DD(E )].
Fibrinogen beta chain [27] = target: T5, Fibrinogen beta chain; assay: Fluorescence polarization-based biochemical high throughput dose response assay to identify inhibitors that disrupt the binding of a cyclic peptide (Tn7) to the fibrin proteolytic product D-Dimer and fragment E complex [DD(E )].

T5 sequence (P02675 whole entry, the tested form may be a part): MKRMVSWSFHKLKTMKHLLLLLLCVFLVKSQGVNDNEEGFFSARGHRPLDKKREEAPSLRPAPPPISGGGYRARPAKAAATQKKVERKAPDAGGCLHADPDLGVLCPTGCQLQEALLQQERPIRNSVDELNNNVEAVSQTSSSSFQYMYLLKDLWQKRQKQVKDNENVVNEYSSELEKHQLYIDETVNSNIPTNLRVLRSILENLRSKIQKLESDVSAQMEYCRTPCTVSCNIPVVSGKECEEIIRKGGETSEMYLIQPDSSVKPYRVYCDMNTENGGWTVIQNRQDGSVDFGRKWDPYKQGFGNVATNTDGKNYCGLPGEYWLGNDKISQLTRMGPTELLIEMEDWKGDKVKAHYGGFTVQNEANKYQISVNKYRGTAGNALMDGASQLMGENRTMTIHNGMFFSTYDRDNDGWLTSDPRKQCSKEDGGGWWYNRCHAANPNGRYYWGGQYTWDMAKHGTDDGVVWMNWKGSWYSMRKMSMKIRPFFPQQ
Female germline-specific tumor suppressor gld-1, sequence (Q17339 whole entry, the tested form may be a part): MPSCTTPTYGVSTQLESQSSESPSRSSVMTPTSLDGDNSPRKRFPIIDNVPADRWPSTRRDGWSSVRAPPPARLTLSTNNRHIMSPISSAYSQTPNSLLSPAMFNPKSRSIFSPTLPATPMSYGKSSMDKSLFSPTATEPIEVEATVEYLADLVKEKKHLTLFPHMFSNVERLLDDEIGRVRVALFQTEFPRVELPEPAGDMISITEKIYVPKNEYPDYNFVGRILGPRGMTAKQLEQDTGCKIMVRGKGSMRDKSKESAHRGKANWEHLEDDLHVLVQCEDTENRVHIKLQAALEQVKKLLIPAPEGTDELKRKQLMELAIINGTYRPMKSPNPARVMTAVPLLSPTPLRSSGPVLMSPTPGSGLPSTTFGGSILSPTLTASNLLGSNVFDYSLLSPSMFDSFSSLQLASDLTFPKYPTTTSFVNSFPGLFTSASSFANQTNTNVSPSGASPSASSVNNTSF
Envelope glycoprotein gp160, sequence (Q6QLK5 whole entry, the tested form may be a part): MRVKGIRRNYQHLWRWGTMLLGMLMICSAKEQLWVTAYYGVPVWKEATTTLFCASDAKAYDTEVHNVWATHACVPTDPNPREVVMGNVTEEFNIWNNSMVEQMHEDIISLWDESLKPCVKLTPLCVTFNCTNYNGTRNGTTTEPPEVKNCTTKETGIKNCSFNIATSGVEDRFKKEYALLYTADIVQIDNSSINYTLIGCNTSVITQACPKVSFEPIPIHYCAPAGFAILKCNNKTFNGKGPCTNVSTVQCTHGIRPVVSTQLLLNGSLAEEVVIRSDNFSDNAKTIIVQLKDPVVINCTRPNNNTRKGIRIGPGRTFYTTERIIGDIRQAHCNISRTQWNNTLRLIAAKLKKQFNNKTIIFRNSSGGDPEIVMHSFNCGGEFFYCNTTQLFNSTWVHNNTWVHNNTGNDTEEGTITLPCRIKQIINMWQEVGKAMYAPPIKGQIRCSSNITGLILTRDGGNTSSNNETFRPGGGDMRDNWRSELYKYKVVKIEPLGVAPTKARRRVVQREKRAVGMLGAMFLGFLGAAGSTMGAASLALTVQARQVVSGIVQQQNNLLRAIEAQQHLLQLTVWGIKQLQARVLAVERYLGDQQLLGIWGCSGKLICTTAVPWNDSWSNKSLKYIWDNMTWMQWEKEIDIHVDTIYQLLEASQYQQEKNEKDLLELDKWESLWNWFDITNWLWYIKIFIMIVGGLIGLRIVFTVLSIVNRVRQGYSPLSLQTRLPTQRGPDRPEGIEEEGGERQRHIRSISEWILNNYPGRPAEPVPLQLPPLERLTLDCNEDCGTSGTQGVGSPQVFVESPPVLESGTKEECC
Phospholipase A2, sequence (P04054 whole entry): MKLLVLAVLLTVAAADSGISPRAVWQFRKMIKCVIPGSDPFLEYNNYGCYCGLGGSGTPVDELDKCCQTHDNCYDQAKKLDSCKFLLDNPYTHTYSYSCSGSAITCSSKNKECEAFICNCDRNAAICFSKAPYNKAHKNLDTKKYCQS
FAD-linked sulfhydryl oxidase ALR, sequence (P55789 whole entry): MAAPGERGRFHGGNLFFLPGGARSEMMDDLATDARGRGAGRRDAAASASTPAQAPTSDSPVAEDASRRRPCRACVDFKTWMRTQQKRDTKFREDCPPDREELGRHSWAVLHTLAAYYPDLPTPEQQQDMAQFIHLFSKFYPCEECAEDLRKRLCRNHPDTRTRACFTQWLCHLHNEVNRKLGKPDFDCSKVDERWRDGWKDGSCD
Melanin-concentrating hormone receptor 1, sequence (Q99705 whole entry): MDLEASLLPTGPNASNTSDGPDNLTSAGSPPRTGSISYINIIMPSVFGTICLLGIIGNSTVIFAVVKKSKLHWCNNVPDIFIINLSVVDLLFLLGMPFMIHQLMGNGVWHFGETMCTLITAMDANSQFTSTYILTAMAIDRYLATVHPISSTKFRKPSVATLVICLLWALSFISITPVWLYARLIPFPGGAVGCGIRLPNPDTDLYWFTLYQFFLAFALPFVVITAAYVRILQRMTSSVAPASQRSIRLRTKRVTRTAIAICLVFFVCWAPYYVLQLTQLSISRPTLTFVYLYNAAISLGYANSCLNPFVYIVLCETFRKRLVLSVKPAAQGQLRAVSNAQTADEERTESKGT
Polyadenylate-binding protein 1, sequence (P11940 whole entry): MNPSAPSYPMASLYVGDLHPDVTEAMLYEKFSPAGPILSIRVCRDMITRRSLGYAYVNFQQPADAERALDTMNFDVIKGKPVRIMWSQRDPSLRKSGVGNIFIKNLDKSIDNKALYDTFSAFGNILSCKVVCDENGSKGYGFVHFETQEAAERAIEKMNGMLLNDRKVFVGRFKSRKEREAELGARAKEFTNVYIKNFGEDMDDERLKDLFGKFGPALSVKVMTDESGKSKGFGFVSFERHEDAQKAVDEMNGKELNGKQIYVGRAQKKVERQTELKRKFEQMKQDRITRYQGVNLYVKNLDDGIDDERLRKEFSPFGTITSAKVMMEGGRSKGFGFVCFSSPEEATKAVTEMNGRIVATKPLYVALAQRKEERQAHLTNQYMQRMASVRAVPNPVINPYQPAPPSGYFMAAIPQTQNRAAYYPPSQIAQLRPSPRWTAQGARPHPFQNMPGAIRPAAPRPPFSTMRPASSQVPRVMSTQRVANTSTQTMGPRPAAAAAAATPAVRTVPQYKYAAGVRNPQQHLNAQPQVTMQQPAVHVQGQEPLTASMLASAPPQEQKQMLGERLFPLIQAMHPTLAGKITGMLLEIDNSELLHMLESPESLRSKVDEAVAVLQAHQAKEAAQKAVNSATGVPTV
Protein Rev, sequence (P04618 whole entry): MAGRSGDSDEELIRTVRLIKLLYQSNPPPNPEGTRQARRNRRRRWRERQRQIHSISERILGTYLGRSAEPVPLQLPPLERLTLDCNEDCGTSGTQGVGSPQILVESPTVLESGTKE

For `O=C(Nc1ccc(Oc2ccc(Cl)cc2)c(Cl)c1)c1cc(I)cc(I)c1O` [RAFOXANIDE], the IC50 [1] was 19.7 µM (active), the EC50 [2] was 80 nM (active) and the IC50 [3] was 7.36 µM (active). For the same molecule, the EC50 (Streptococcus) was 137 nM (active), the IC50 [4] was 10.8 nM (active) and the IC50 [5] was 30.3 nM (active). The IC50 [6] was 16.9 nM (active), the IC50 [7] was 14.3 nM (active) and the IC50 [8] was 1.3 µM (active). The IC50 [9] was 54 nM (active), the IC50 [10] was 9.5 nM (active) and the IC50 [11] was 8.4 nM (active). For the same molecule, the IC50 [12] was > 40 µM (inactive).
With `COc1ccc(Oc2c(Cl)cnn(Cc3ccc(C)cc3)c2=O)cc1` the IC50 [13] was 6.3 µM (active).
In the case of `CC1CC(C)CN(CCCNC(=O)c2cc3c(s2)-c2ccccc2OC3)C1` (stereo not given), the CC50 (Vero [14]) is reported as 29.4 µM (active), the CC50 (Vero [15]) is reported as 11.2 µM (active) and the CC50 (Vero [16]) is reported as 12.4 µM (active). For the same molecule, the IC50 [17] was 15.5 µM (active), the IC50 (Vero [18]) was > 40 µM (active) and the IC50 [19] was > 20 µM (inactive).
For `O=C(O)C(c1ccccc1)N1C(=O)/C(=C\c2ccc(-c3cccc(Cl)c3)o2)SC1=S` (stereo not given), the EC50 [2] was 2370 nM (active), the EC50 (Streptokinase A) was 1.37 µM (active) and the EC50 (Streptococcus) was 2230 nM (active). For the same molecule, the AC50 (Salmon testes DNA) was 40.7 µM (active), the AC50 [20] was 3.54 µM (active) and the IC50 (Cysteine protease ATG4B) was 4.41 µM (active). The EC50 [21] was 50.3 µM (inactive), the IC50 (Phospholipase A2) was 11.2 µM (active) and the EC50 [22] was 97.1 µM (inactive).
For `COc1ccc2[nH]c(O)c(N=NC(=O)Cc3cccs3)c2c1`, the IC50 [23] was 11 µM (active) and the IC50 [24] was 31 µM (active).
For `COC(=O)c1ccc2c(c1)SC1=C(O)CCCC1=N2`, the IC50 (Protein Rev) was > 75.4 µM (not active), the IC50 [25] was 6.11 µM (active) and the IC50 (Fibrinogen beta chain [26]) was 17.9 µM (inactive). For the same molecule, the IC50 (Fibrinogen beta chain [27]) was > 83.3 µM (inactive).
